Patent US20080220103A1, “METHOD FOR TREATING/CONTROLLING/KILLING FUNGI AND BACTERIA ON LIVING ANIMALS” (priority 2005, published 2008)
≈ marks a conversion by molar mass, not a printed value. Read-outs that look alike come from different tables or passages of the source.

Legend:
[1] = system: All yeasts; assay: MIC, CLSI M27-A2, pooled yeasts; format: cell-based, C. albicans, C. parapsilosis; details: n = 12
Experimental: (§1) Minimum Inhibitory Concentration (MIC): Minimum inhibitory concentrations of synthetic and semisynthetic and natural products against dermatophytes were determined using a modification of the Clinical Laboratory Standards Institute (CLSI, formerly National Committee of Clinical Laboratory Standards, NCCLS) M38A standard method for dermatophytes, while MIC of these agents against Candida species were determined using the CLSI M27-A2 methodology. The method used to determine the MIC against bacteria was based on the CLSI document M7-A7.
(§2) The remaining essential oils were prepared in a dilution range of 0.03-16 μg/ml. For Candida the MIC was read at 24 hours and defined as the lowest concentration to inhibit 50% of fungal growth as compared to the growth control (Table 4).
In the following Tables, MIC50 and MIC90 are defined as the minimal concentrations of a compound that can inhibit 50% and 90% of the tested organisms, respectively.

[2] = system: S. aureus; assay: MIC, CLSI M7-A7, Mueller-Hinton; format: cell-based, Staphylococcus aureus; details: for MIC Range / MIC50 / MIC90: S. aureus
Experimental: as §1
For bacterial species, the medium used to evaluate the antibacterial activity of agents and essential oils was Mueller-Hinton (Oxoid Ltd., Basingstoke, Hampshire, England). Serial dilutions of miconazole, terbinafine, and tolnaftate were prepared in a range of 0.125-64 μg/ml and serial dilutions of tea tree oil were prepared in a range of 0.0078-4 μg/ml, while those for the rest of the essential oils were prepared in a range 0.031-16 μg/ml.

[3] = system: C. parapsilosis; assay: MIC, CLSI M27-A2; format: cell-based, Candida parapsilosis; details: for MIC / MIC50 / MIC90: Lodderomyces parapsilosis; for MIC50 / MIC90 / MIC Range: n = 6
Experimental: as §1, §2

[4] = system: T. mentagrophytes; assay: Pre-treatment leather biopsy disc assay; format: cell-based, Trichophyton mentagrophytes
Source text: (§3) Based on the above experiments, our disc biopsy assay employed Dr. Scholl's insole and leather discs as the optimal substrates representing materials used in shoes, and 30% isopropanol as the optimal vehicle to dissolve the agents to be tested in pre-treatment and post-treatment studies. Two types of disc biopsy assays were used to evaluate the ability of different synthetic and natural substances to disinfect shoe material: (a) Pre-treatment assay: where discs were pre-treated with antifungals first and then infected with T. mentagrophytes, and (b) Post-treatment assay: where discs were first infected with T. mentagrophytes, then treated with drugs. These assays reveal the ability of different agents to prevent and treat shoe fungal contamination, respectively. Pre-treatment assays: To evaluate the ability of different agents to prevent fungal contaminations of shoes, PDA plates were prepared on which 10^4 T. mentagrophytes cells were evenly spread. Next, discs from insoles and leather were treated as follows (with either agent or control vehicle): discs were pretreated with a single spray, spraying for 15 second or 30 second. Other discs were immersed in agent or vehicle for 30 min. Following this treatment, discs were air-dried by placing them in a Petri plate for 1 min. These dried discs were then placed (drug side down) on the seeded PDA plates. Plates were then incubated for 4 days at 30° C. Following incubation, fungal growth was recorded. […] Diameter of the clearance zone (CZD) was measured. The relative activity of different agents and control were assessed.

[5] = system: T. mentagrophytes; assay: Post-treatment insole biopsy disc assay; format: cell-based, Trichophyton mentagrophytes
Source text: (§4) Based on the above experiments, our disc biopsy assay employed Dr. Scholl's insole and leather discs as the optimal substrates representing materials used in shoes, and 30% isopropanol as the optimal vehicle to dissolve the agents to be tested in pre-treatment and post-treatment studies.
(§5) Two types of disc biopsy assays were used to evaluate the ability of different synthetic and natural substances to disinfect shoe material: (a) Pre-treatment assay: where discs were pre-treated with antifungals first and then infected with T. mentagrophytes, and (b) Post-treatment assay: where discs were first infected with T. mentagrophytes, then treated with drugs. These assays reveal the ability of different agents to prevent and treat shoe fungal contamination, respectively.
(§6) Post-treatment assays: To evaluate the ability of various agents to treat infected shoes, PDA plates were prepared on which […] T. mentagrophytes cells were evenly spread on their surface. Next, untreated biopsy discs were placed on these PDA plates and incubated for 4 days at 30° C. Incubating the biopsy discs in this manner allowed the fungi to invade the discs. Infected discs were picked and post-treated with different agents by spraying. Post-treated discs were allowed to air dry and were then placed on fresh, uninoculated PDA plates and incubated for 4 additional days at 30° C. Incubation of the discs under these conditions allows any fungi that are not killed by the sprayed agent to grow. In other words, agents that are effective in the treatment of shoe material will not show any fungal growth around the disc biopsy (FIG. 1C). In contrast, discs treated with ineffective agents will show fungal growth emanating from them (FIG. 1D). Diameter of the growth zone (GZD) was determined as a measure of the activity of the agent tested.

[6] = system: T. mentagrophytes; assay: Post-treatment leather biopsy disc assay; format: cell-based, Trichophyton mentagrophytes
Source text: as §4, §5, §6

[7] = system: T. mentagrophytes; assay: Scanning electron microscopy of treated discs; format: cell-based, Trichophyton mentagrophytes; details: for SEM: fungal growth on insole, post-contamination treatment / SEM: fungal growth on insole, pretreatment: insole biopsy disc; for SEM: fungal growth on leather, pretreatment: leather biopsy disc
Experimental: Scanning electron microscopy (SEM) was used to monitor the ability of agents to eradicate fungal growth on shoe insoles or leather biopsy discs. Pre- and post-treated discs were processed for SEM by the method of Chandra et al. One set of discs was used as a control in which no drug pre- or post-treatment was performed. In addition, one set of biopsy discs was used as blank where no fungal cells or drug were added. Following treatment, discs were fixed with 2% glutaraldehyde for 2 h, and then washed with sodium cacodylate buffer (three times for 10 minutes each). The discs were then treated with 1% osmium tetraoxide (for 1 h at 4° C.) followed by a series of washing with sodium cacodylate buffer, followed by a two times washing with distilled water. Next, the discs were treated with 1% tannic acid washed three times with distilled water, and followed by 1% uranyl acetate with two water washings. The samples were then dehydrated through a series of ethanol solutions (range from 25% (vol/vol) ethanol in distilled water to absolute ethanol). Prepared samples were then sputter coated with Au/Pd (60/40) and viewed with Amray 1000B scanning electron microscope.

[8] = system: T. mentagrophytes; assay: Pre-treatment insole biopsy disc assay; format: cell-based, Trichophyton mentagrophytes
Source text: as §3

[9] = Staphylococcus aureus, S. aureus strain 730, 80% inhibition, 16 h, read-out: MIC
[10] = Staphylococcus aureus, S. aureus strain 732, read-out: MIC

`Clc1ccc(COC(Cn2ccnc2)c2ccc(Cl)cc2Cl)c(Cl)c1` (stereo not drawn) [Miconazole, miconazole] showed an MIC50 [1] of 4 µg/mL (≈ 9.61 µM), an MIC90 [1] greater than 16 µg/mL and an MIC ([2]; S. aureus strain 733) of 2 µg/mL (≈ 4.81 µM). The MIC ([2]; S. aureus strain 734) was 2 µg/mL (≈ 4.81 µM), the MIC ([2]; S. aureus strain 8470) was 2 µg/mL (≈ 4.81 µM) and the “MIC Range” value ([2]; n = 6) was 2 µg/mL (≈ 4.81 µM). It also gave an MIC50 ([2]; Staphylococcus aureus) of 2 µg/mL (≈ 4.81 µM), an MIC90 ([2]; Staphylococcus aureus) of 2 µg/mL (≈ 4.81 µM) and an MIC [2, 9] of 2 µg/mL (≈ 4.81 µM). The MIC [2, 10] was 2 µg/mL (≈ 4.81 µM), the MIC ([3]; C. parapsilosis strain 7629) was 4 µg/mL (≈ 9.61 µM) and the MIC ([3]; C. parapsilosis strain 7668) was 16 µg/mL (≈ 38.4 µM). It also gave an MIC ([3]; C. parapsilosis strain 7672) of 8 µg/mL (≈ 19.2 µM), an MIC ([3]; C. parapsilosis strain 7995) of 4 µg/mL (≈ 9.61 µM) and an MIC ([3]; C. parapsilosis strain 8148) greater than 16 µg/mL. For the same molecule, the MIC ([3]; C. parapsilosis strain 8442) was 4 µg/mL (≈ 9.61 µM), the MIC50 ([3]; C. parapsilosis) was 4 µg/mL (≈ 9.61 µM) and the MIC90 ([3]; C. parapsilosis) was 16 µg/mL (≈ 38.4 µM).

In the case of `CN(C/C=C/C#CC(C)(C)C)Cc1cccc2ccccc12` [Terbinafine, terbinafine], the MIC50 [1] is reported as 0.25 µg/mL (≈ 0.858 µM), the MIC90 [1] is reported as 2 µg/mL (≈ 6.86 µM) and the “Leather Pretreatment (CZD)” value ([4]; 1% spray in 30% isopropanol) is reported as 85 mm. It also gave an MIC ([2]; S. aureus strain 733) greater than 64 µg/mL, an MIC ([2]; S. aureus strain 734) greater than 64 µg/mL and an MIC ([2]; S. aureus strain 8470) greater than 64 µg/mL. For the same molecule, the “MIC Range” value ([2]; n = 6) was greater than 64 µg/mL, the MIC50 ([2]; Staphylococcus aureus) was greater than 64 µg/mL and the MIC90 ([2]; Staphylococcus aureus) was greater than 64 µg/mL. The MIC [2, 9] was greater than 64 µg/mL, the MIC [2, 10] was greater than 64 µg/mL and the “Insoles Post-contamination Treatment (GZD, growth zone diameter)” value (“Insoles Post-contamination Treatment” for short) ([5]; 1% spray in 30% isopropanol) was 0 mm. For the same molecule, the “Leather Post-contamination Treatment (GZD)” value ([6]; 1% spray in 30% isopropanol) was 0 mm, the “SEM: fungal growth on insole, post-contamination treatment” value [7] was “complete clearance of fungal growth” and the “SEM: fungal growth on insole, pretreatment” value [7] was “completely eradicated fungal growth”. For the same molecule, the “SEM: fungal growth on leather, pretreatment” value [7] was “completely eradicated fungal growth”, the “Insoles Pretreatment (CZD, clearance zone diameter)” value (“Insoles Pretreatment” for short) ([8]; 1% spray in 30% isopropanol) was 85 mm and the “MIC Range” value ([3]; C. parapsilosis) was 0.25-0.25 μg/mL. For the same molecule, the “MIC Range” value ([3]; C. parapsilosis, listed as terbinafine) was 0.25 µg/mL (≈ 0.858 µM), the MIC ([3]; C. parapsilosis strain 7629) was 0.25 µg/mL (≈ 0.858 µM) and the MIC ([3]; C. parapsilosis strain 7668) was 0.25 µg/mL (≈ 0.858 µM). The MIC ([3]; C. parapsilosis strain 7672) was 0.25 µg/mL (≈ 0.858 µM), the MIC ([3]; C. parapsilosis strain 7995) was 0.25 µg/mL (≈ 0.858 µM) and the MIC ([3]; C. parapsilosis strain 8148) was 0.25 µg/mL (≈ 0.858 µM). For the same molecule, the MIC ([3]; C. parapsilosis strain 8442) was 0.25 µg/mL (≈ 0.858 µM), the MIC50 ([3]; C. parapsilosis) was 0.25 µg/mL (≈ 0.858 µM) and the MIC90 ([3]; C. parapsilosis) was 0.25 µg/mL (≈ 0.858 µM).

`Cc1cccc(N(C)C(=S)Oc2ccc3ccccc3c2)c1` [Tolnaftate, tolnaftate] was tested, and the MIC50 [1] was 16 µg/mL (≈ 52 µM), the MIC90 [1] was greater than 64 µg/mL and the “Leather Pretreatment (CZD)” value ([4]; 1% spray in 30% isopropanol) was 18 mm. For the same molecule, the “Leather Pretreatment (CZD)” value ([4]; 1% spray in 30% isopropanol, listed as tolnaftate) was 16 mm, the “Leather Pretreatment (CZD)” value ([4]; 2% spray in 30% isopropanol) was 6 mm and the MIC ([2]; S. aureus strain 733) was greater than 64 µg/mL. The MIC ([2]; S. aureus strain 734) was greater than 64 µg/mL, the MIC ([2]; S. aureus strain 8470) was greater than 64 µg/mL and the “MIC Range” value ([2]; n = 6 printed, listed as TOLNAFTATE) was greater than 64 µg/mL. The “MIC Range” value ([2]; n = 6 printed, listed as tolnaftate) was greater than 64 µg/mL, the MIC50 ([2]; Staphylococcus aureus) was greater than 64 µg/mL and the MIC90 ([2]; Staphylococcus aureus) was greater than 64 µg/mL. The MIC [2, 9] was greater than 64 µg/mL, the MIC [2, 10] was greater than 64 µg/mL and the “Insoles Post-contamination Treatment” value ([5]; 1% spray in 30% isopropanol) was 8 mm. For the same molecule, the “Insoles Post-contamination Treatment” value ([5]; 2% spray in 30% isopropanol) was 10 mm, the “fungal regrowth from established contamination” value ([5]; 4% (w/v) in acetone, insole disc) was “no fungal regrowth was observed” and the “Leather Post-contamination Treatment (GZD)” value ([6]; 1% spray in 30% isopropanol) was 11 mm. For the same molecule, the “Leather Post-contamination Treatment (GZD)” value ([6]; 2% spray in 30% isopropanol) was 11 mm, the “SEM: fungal growth on insole, post-contamination treatment” value [7] was “minimally effective” and the “SEM: fungal growth on insole, pretreatment” value [7] was “completely eradicated fungal growth”. For the same molecule, the “SEM: fungal growth on leather, pretreatment” value [7] was “did not completely eradicate dermatophyte growth”, the “Insoles Pretreatment” value ([8]; 1% spray in 30% isopropanol) was 25 mm and the “Insoles Pretreatment” value ([8]; 2% spray in 30% isopropanol) was 10 mm. For the same molecule, the “Insoles Pretreatment” value ([8]; 2% spray in 30% isopropanol, listed as tolnaftate) was 11 mm, the “preventive activity against dermatophytes infecting shoes” value ([8]; acetone as vehicle) was “potent preventive activity” and the “MIC Range” value ([3]; C. parapsilosis) was 0.5 to 16 µg/mL. The MIC ([3]; C. parapsilosis strain 7629) was 0.5 µg/mL (≈ 1.63 µM), the MIC ([3]; C. parapsilosis strain 7668) was 8 µg/mL (≈ 26 µM) and the MIC ([3]; C. parapsilosis strain 7672) was 8 µg/mL (≈ 26 µM). It also gave an MIC ([3]; C. parapsilosis strain 7995) of 8 µg/mL (≈ 26 µM), an MIC ([3]; C. parapsilosis strain 8148) of 8 µg/mL (≈ 26 µM) and an MIC ([3]; C. parapsilosis strain 8442) of 16 µg/mL (≈ 52 µM). For the same molecule, the MIC ([3]; C. parapsilosis, the other isolates (not #7629)) was 8 to 16 µg/mL (≈ 26 to 52 µM), the MIC50 ([3]; C. parapsilosis) was 8 µg/mL (≈ 26 µM) and the MIC90 ([3]; C. parapsilosis) was 8 µg/mL (≈ 26 µM).
